Experimental data from ChEMBL document CHEMBL2390939, “Synthesis and in vitro cytotoxicity of andrographolide-19-oic acid analogues as anti-cancer agents” (Bioorg Med Chem Lett, 2013).

Columns and labels:
HCT-116 [1] = assay: Cytotoxicity against human HCT116 cells assessed as growth inhibition after 72 hrs by MTS assay; type: functional, cell-based; details: HCT-116, 72 h
MCF7 = assay: Cytotoxicity against human MCF7 cells assessed as growth inhibition after 72 hrs by MTS assay; type: functional, cell-based; details: MCF7, 72 h
HCT-116 [2] = assay: Ratio of cis-platin IC50 to compound IC50 for growth inhibition of human HCT116 cells; type: functional

| SMILES | IC50 (HCT-116 [1]) | IC50 (MCF7) | Ratio IC50 (HCT-116 [2]) |
| --- | --- | --- | --- |
| C=C1CC[C@H]2[C@@](C)(CC[C@@H](O)[C@@]2(C)C(=O)O)[C@@H]1C/C=C1/C(=O)OC[C@H]1OC(=O)/C=C/c1ccc(OC)cc1 | 1.92 µM | 8.86 µM | – |
| C=C1CC[C@H]2[C@@](C)(CC[C@@H](O)[C@@]2(C)C(=O)O)[C@@H]1C/C=C1/C(=O)OC[C@H]1OC(=O)c1ccccc1 | 13.8 µM | > 40.2 µM | – |
| C=C1CC[C@H]2[C@@](C)(CC[C@@H](OC(C)=O)[C@@]2(C)C(=O)O)[C@@H]1C/C=C1/C(=O)OC[C@H]1OC(C)=O | 2.19 µM | > 4.1 µM | – |
| C=C1CC[C@H]2[C@@](C)(CC[C@@H](OC(C)=O)[C@@]2(C)C(=O)OC)[C@@H]1C/C=C1/C(=O)OC[C@H]1OC(=O)c1ccccc1 | 3.01 µM | 10.6 µM | – |
| C=C1CC[C@H]2[C@@](C)(CC[C@@H](OC(C)=O)[C@@]2(C)C(=O)OCc2ccccc2)[C@@H]1C/C=C1/C(=O)OC[C@H]1OC(C)=O | 1.07 µM | 6.28 µM | – |
| C=C1CC[C@@H]2[C@](C)(CO)[C@H](O)CC[C@@]2(C)[C@@H]1C/C=C1/C(=O)OC[C@H]1O [ANDROGRAPHOLIDE] | 23.9 µM | > 66 µM | – |
| C=C1CC[C@H]2[C@@](C)(CC[C@@H](OC(C)=O)[C@@]2(C)C(=O)OC)[C@@H]1C/C=C1/C(=O)OC[C@H]1OC(=O)/C=C/c1ccc(OC)cc1 | 2.78 µM | 14.5 µM | – |
| C=C1CC[C@H]2[C@@](C)(CC[C@@H](OC(C)=O)[C@@]2(C)C(=O)OCc2ccccc2)[C@@H]1C/C=C1/C(=O)OC[C@H]1OC(=O)/C=C/c1ccc(OC)cc1 | 2.83 µM | 6.13 µM | – |
| C=C1CC[C@H]2[C@@](C)(CC[C@@H](OC(C)=O)[C@@]2(C)C(=O)O)[C@@H]1C/C=C1/C(=O)OC[C@H]1OC(=O)c1ccccc1 | 17.8 µM | 38.2 µM | – |
| C=C1CC[C@H]2[C@@](C)(CC[C@@H](OC(C)=O)[C@@]2(C)C(=O)O)[C@@H]1C/C=C1/C(=O)OC[C@H]1OC(=O)/C=C/c1ccc(OC)cc1 | 9.73 µM | 33.9 µM | – |
| C=C1CC[C@H]2[C@@](C)(CC[C@@H](O)[C@@]2(C)C(=O)O)[C@@H]1C/C=C1/C(=O)OC[C@H]1OC(C)=O | 25.2 µM | 33.3 µM | – |
| C=C1CC[C@H]2[C@@](C)(CC[C@@H](OC(C)=O)[C@@]2(C)C(=O)OCc2ccccc2)[C@@H]1C/C=C1/C(=O)OC[C@H]1OC(=O)c1ccccc1 | 1.18 µM | 8.37 µM | 11 |
| C=C1CC[C@H]2[C@@](C)(CC[C@@H](OC(C)=O)[C@@]2(C)C(=O)OC)[C@@H]1C/C=C1/C(=O)OC[C@H]1OC(C)=O | 2.02 µM | 6.4 µM | – |
